Results published in patent publication EP2848122A1, “NEW PESTICIDE INCLUSION COMPLEXES, CO[…] COMPLEXES AND THE USE THEREOF AS PESTICIDES” (priority 2012, dated 2013).
In brackets after ≈: the same amount, converted by molar mass.

Experiment: water solubility by ultraviolet (UV) spectrophotometry
Format: physicochemical
Conditions: at 25 °C, free pesticide, read-out: intrinsic solubility
From the text: Figure 1: Diagram of a solubility study using ultraviolet (UV) spectrophotometry of Bendiocarb as the concentration of cyclodextrin increases. Figure 2: Graph of differential scanning thermogravimetry (DST) of Bifenthrin alone, cyclodextrin (CD) alone, physical mixture of the two, and inclusion complex formed (encapsulated). Figure 3: Curves of differential thermal analysis (DTA) and thermal gravimetric analysis (TGA) of Tetramethrin alone, cyclodextrin (CD) alone, physical mixture of the two, and different inclusion complexes formed according to methods 1 or 2 and with the indicated stechiometries 1:1 or 2:1. Figure 4: Spectra of Nuclear Magnetic Resonance (1 H NMR) of Acetamiprid alone (a), cyclodextrin (CD) alone (b) and formed inclusion complex (c). Figure 5: Scanning electron photographs (SEM) of the structural change of Tebuconazole once the inclusion complex with cyclodextrin is formed. Figure 6: X-ray diffractograms (XRD) of Imidacloprid alone, cyclodextrin (CD) alone, physical mixture of both and inclusion complex formed (encapsulation). Figure 7: Diagram of the three-dimensional structures of the Acetamiprid-cyclodextrin complex by formation of a single crystal. Figure 8: Structural modelling by means of the program MACROMODEL of the Acetamiprid-cyclodextrin dimer. Figure 9: Performance of the Bendiocarb microencapsulation reaction (DSC). […]

SMILES: CNC(=O)Oc1cccc2c1OC(C)(C)O2 [Bendiocarb]
- solubility: 600 µM (≈ 134 µg/mL)
